# Tests used:
# [1] = tested on: Subcutaneous Metrazol (pentylenetetrazol; SCMET) seizures; assay: Subcutaneous Metrazol (SCMET / scPTZ) model, mice i.p.; type: in vivo; settings: (MJ) animals displaying myoclonic jerks
# Description: (§1) Huperzine A was evaluated in the Maximal Electroshock (MES) and Subcutaneous Metrazol (pentylenetetrazol; SCMET) models of generalized tonic-clonic and myoclonic seizures, respectively in mice and rats.
# The Subcutaneous Metrazole (SCMET) model is also an art-recognized test for therapeutic agents for epilepsy, and in particular, is useful for investigating petite mal seizures. A Metrazole dose of 85 mg/kg was administered subcutaneously to induce seizures. Huperzine was then administered and the animals observed.
# Huperzine A was either administered in a soluble form (SOL) or as a suspension (SUS). […] To produce the suspension, huperzine A was ground to a powder using a mortar and pestle, and the powder mixed with methyl cellulose. This mixture was then sonicated to produce a suspension that was subsequently administered to mice in the weight range of 19.0 to 25.5 g. The data are presented as the number of mice showing an effect (N) from the full number of mice (F) tested. […] At four hours post administration, all three mice were protected (i.e., 100% were protected).
# Male, 18-25 g CF1 mice and 100-125 g Sprague-Dawley rats (Charles River Laboratories, Wilmington, Mass.) were used as the experimental animals. Animals were pretreated intraperitoneally (i.p.) with increasing doses of HupA and tested at various times after administration for protection against tonic extension (MES test), minimal clonic (s.c. PTZ test), limbic (6 Hz), or secondarily generalized (kindled rat) seizures. Seizure testing was carried out as follows. […] The ability of the test substance to prevent seizures induced by 6 Hz corneal stimulation (32 mA, 3 sec duration) was assessed at various times after i.p. administration of 1 mg/kg HupA For assessment of hippocampal kindling, HupA (1 mg/kg, i.p.) was administered. The ability of the compound to block the expression of hippocampal kindled seizures was evaluated using the rapid hippocampal kindling model (White et al., 2002). […]
# [2] = tested on: rats; assay: Toxicity (TOX) / minimal motor impairment, rats, oral; type: in vivo
# [3] = tested on: maximal electroshock seizure (MES); assay: Maximal Electroshock (MES) model, mice i.p.; type: in vivo; settings: 1 mg/kg
# Description: as §1
# The maximal electroshock (MES) model is an art recognized test, useful to investigate the efficacy of therapeutic agents against grand mal seizures. Maximal seizures were induced by the application of electrical current to the brain via corneal electrodes. The stimulus parameters for mice were 50 mA in a pulse of 60 Hz for 200 ms. The animals were given the huperzine dissolved in methyl cellulose and spasm inhibition was recorded as a measure of anticonvulsant activity.
# Huperzine A was either administered in a soluble form (SOL) or as a suspension (SUS). […]
# Male, 18-25 g CF1 mice and 100-125 g Sprague-Dawley rats (Charles River Laboratories, Wilmington, Mass.) were used as the experimental animals. […] The ability of the test substance to prevent seizures induced by 6 Hz corneal stimulation (32 mA, 3 sec duration) was assessed at various times after i.p. administration of 1 mg/kg HupA For assessment of hippocampal kindling, HupA (1 mg/kg, i.p.) was administered. The ability of the compound to block the expression of hippocampal kindled seizures was evaluated using the rapid hippocampal kindling model (White et al., 2002). […]
# [4] = tested on: 6 Hz seizures; assay: 6 Hz seizure test, mice i.p.; type: in vivo; settings: for Time to Peak Effect N/F: 6 HZ, 0.83 mg/kg
# Description: HupA was also evaluated for its ability to modify tonic extension, minimal clonic, limbic seizures in the maximal electroshock seizure (MES), subcutaneous pentylenetetrazol (sc PTZ), and 6 Hz seizure tests following intraperitoneal administration. These three tests are highly predictive of efficacy against human generalized tonic-clonic (MES), generalized myoclonic (sc PTZ), and refractory limbic (6 Hz) seizures, respectively. In addition, it was tested for its ability to prevent the expression of Stage V seizures in the hippocampal kindled rat model of partial epilepsy.
# (§2) Male, 18-25 g CF1 mice and 100-125 g Sprague-Dawley rats (Charles River Laboratories, Wilmington, Mass.) were used as the experimental animals. Animals were pretreated intraperitoneally (i.p.) with increasing doses of HupA and tested at various times after administration for protection against tonic extension (MES test), minimal clonic (s.c. PTZ test), limbic (6 Hz), or secondarily generalized (kindled rat) seizures. Seizure testing was carried out as follows. For the MES and 6 Hz tests, a drop of anesthetic/electrolyte solution (0.5% tetracaine hydrochloride in 0.9% saline) was applied to the eyes of each animal prior to placement of the corneal electrodes. The electrical stimulus in the MES test was 50 mA, 60 Hz, for mice and 150 mA, 60 Hz, for rats, delivered for 0.2 sec (White et al., 2002, In R. H. Levy et al., eds. Antiepileptic Drugs, 5th edition, p. 36-48, Philadelphia: Lippincott Williams & Wilkins). The ability of the test substance to prevent seizures induced by 6 Hz corneal stimulation (32 mA, 3 sec duration) was assessed at various times after i.p. administration of 1 mg/kg HupA For assessment of hippocampal kindling, HupA (1 mg/kg, i.p.) was administered. The ability of the compound to block the expression of hippocampal kindled seizures was evaluated using the rapid hippocampal kindling model (White et al., 2002). Animals not displaying secondarily generalize seizures were considered protected.
# [5] = tested on: patients; settings: published clinical studies; mainly cholinergic (dizziness, nausea, gastrointestinal symptoms, sweating, depressed heart rate); cited from earlier work
# [6] = tested on: 6 Hz seizures; assay: 6 Hz anticonvulsant evaluation in mice, ICV administration; type: in vivo
# Excerpt: Huperzine delivered directly to the central nervous system (e.g., cerebral ventricles, intrathecal space), via direct injection and/or through an apparatus such as a pump or material containing Huperzine, bypasses the systemic effect by minimizing bioavailability of Huperzine in the rest of the body, and potently prevents and treats seizure, pain and/or other neurological conditions.
# Results after direct administration to neural tissue using an art-recognized 6-HZ animal model are shown below.
# Doses listed as pmol/5 microliter injection volume for ICV. TD50 at 0.5 hrs: 36.15 (9.35-121.74) 1.57+/−0.51.
# as §2
compound,measurement,setting,value
C/C=C1\[C@H]2C=C(C)C[C@]1(N)c1ccc(=O)[nH]c1C2 [Huperzine A],SCMET N/F (mice showing an effect / mice tested),"[1]; 1 mg/kg i.p., SOL, 0.5 h",3/5 (MJ)^1
same,SCMET N/F (mice showing an effect / mice tested),"[1]; 3 mg/kg i.p., SUS, 0.5 h",1/1 (MJ)
same,SCMET N/F (mice showing an effect / mice tested),"[1]; 10 mg/kg i.p., SUS, 4.0 h",1/1 (MJ)
same,behavioral impairment at anticonvulsant doses,[2],marked motor impairment
same,toxicity,[2]; 1 mg/kg oral,no toxicity
same,protection in the mouse MES test (FIG. 1),[3],time-dependent protection
same,protection in the mouse 6 Hz test (FIG. 1),[4]; 0.8 mg/kg,time-dependent protection
same,Time to Peak Effect N/F,[4]; 0.25 h,1/4
same,Time to Peak Effect N/F,[4]; 0.5 h,1/4
same,Time to Peak Effect N/F,[4]; 1.0 h,4/4
same,Time to Peak Effect N/F,[4]; 2.0 h,2/4
same,Time to Peak Effect N/F,[4]; 4.0 h,0/4
same,protection against 6 Hz seizures (FIG. 2),"[4]; mouse, in vivo",dose-dependent protection
same,adverse effects in patients,[5],adverse effects were noted infrequently
same,ED50,"[6]; 6 HZ, ICV, 32 mA, 0.5 h",0.21 pmol/5 microliter injection volume
same,N/F (animals active over number tested),"[6]; ICV, 32 mA, 0.5 h, dose 0.01 (pmol/5 microliter; head prints mg/kg)",3/8
same,N/F (animals active over number tested),"[6]; ICV, 32 mA, 0.5 h, dose 1 (pmol/5 microliter; head prints mg/kg)",5/8
same,N/F (animals active over number tested),"[6]; ICV, 32 mA, 0.5 h, dose 10 (pmol/5 microliter; head prints mg/kg)",6/8
same,N/F (animals active over number tested),"[6]; ICV, 32 mA, 0.5 h, dose 100 (pmol/5 microliter; head prints mg/kg)",8/8
same,N/F (animals active over number tested),"[6]; ICV, 32 mA, 0.5 h, dose 1000 (pmol/5 microliter; head prints mg/kg)",4/4
same,Time to Peak Effect N/F,"[6]; ICV, 32 mA, dose 10 (pmol/5 microliter), 0.25 h",2/4
same,Time to Peak Effect N/F,"[6]; ICV, 32 mA, dose 10 (pmol/5 microliter), 0.5 h",3/4
same,Time to Peak Effect N/F,"[6]; ICV, 32 mA, dose 100 (pmol/5 microliter), 0.25 h",4/4
same,Time to Peak Effect N/F,"[6]; ICV, 32 mA, dose 100 (pmol/5 microliter), 0.5 h",3/4
same,Time to Peak Effect N/F,"[6]; ICV, 32 mA, dose 100 (pmol/5 microliter), 1.0 h",1/4
same,ICV ED50 dose,"[6]; mouse 6-hz model, ICV",52 pgrams
same,maximum concentration in the cerebral ventricles after the ICV ED50 dose,"[6]; mouse 6-hz model, ICV ED50 dose, 40 μL",approximately 1.3 pgram/μL
